Assays:
Type in all cases: cell-based
Neutrophil elastase (NE) = assay: Neutrophil elastase activity in lysates of mouse bone marrow progenitor cells differentiated into neutrophils under DPP1 inhibitor
Method: (§1) Male or female C57BL/6 mice at the age of 8-14 weeks were used.
(§2) The two femurs and two tibias were removed out of a single mouse and gauze was used to remove the muscles and residue tissues. A sterile environment for surgical instruments and surgical sites is maintained. The bones were put into one 15-mL tube with cold sterile RPMI medium and placed on ice until further processing is performed.
(§3) A fresh 50-mL tube is placed on ice and a fresh 40/70 μm cell strainer (CLS431750, Sigma) is inserted into the top of the Falcon tube. Both ends of two femurs and two tibias are cut with bone cutters and flush bone marrow of all bones from one single mouse are placed into the cell strainer. 5-mL of ice-cold RPMI (RPMI medium containing 10 mM HEPES, pH 7.4) was used for each femur or tibia using a blunt needle (25 G needle), totaling about 20 mL per tube.
(§4) The cell suspension is centrifuged at 600×g for 5 min at 4° C. and the supernatant is carefully discarded.
(§5) The cell pellet is resuspended in 400 μL of ice-cold MACS buffer (PH7.2 PBS plus 0.5% BSA and 2 mM EDTA) for one adult mouse (optimized for 4 bones/mouse).
(§6) 100 μL Direct Lineage Cell Depletion Cocktail (which is enough for 100 million cells depletion) is added. The components are mixed well and incubated for 10 min. at 2° C.-8° C.
(§7) Magnetic separation LS Column (MACS, Miltenyi, 130 042 401) is prepared by placing it in the magnetic field of MACS Separator and rinsing with 3 mL of ice-cold MACS buffer.
(§8) Cell suspension is applied onto the column. Flow-through containing unlabeled cells, representing the enriched lineage negative cells, is collected.
(§9) Column is washed with 3×3 mL of ice-cold MACS buffer. Unlabeled cells that pass through are collected, representing the enriched lineage negative cells, and combined with the flow-through from prior step.
(§10) The cell suspension is centrifuged at 600×g for 5 min at 4° C., and the supernatant is carefully discarded. The pellet is washed once with 10 mL ice cold IMDM medium (IMDM GlutaMax (Gibco, 31980030) plus 10% FCS and 1% PS).
(§11) The cell pellet is resuspended with 2 mL ice-cold complete IMDM medium and the cells are counted. The cells are then ready for neutrophil differentiation.
(§12) The resulting undifferentiated bone marrow cells are in complete IMDM medium (IMDM with 10% FBS and 1% antibiotics); and the concentration of cells is adjusted to 1×10^5 cells/mL, supplemented with 50 ng/ml of SCF (BioLegend, 579704) and 50 ng/ml of IL 3 (BioLegend, 575504). The cells are subgrouped and the respective DPP1 inhibitors are added accordingly. Cells are then cultivated in a flask at 37° C. for 3 days.
(§13) Cells are checked each day for expansion and maintaining a final concentration between 2-10×10^5 cells/ml. On day 3, cells are counted. 3-4 million cells for each group are harvested and lystates prepared for NSPs activity detection. The left cells are resuspended at 2× 10^5 cells/mL in fresh medium supplemented with 50 ng/ml of SCF, 50 ng/ml of IL 3 and 50 ng/ml of G-CSF (BioLegend, 574604). The DPP1 inhibitors are refreshed in the medium. Cells are then cultivated in a flask at 37° C. for another 2 days.
(§14) On day 5, cells are counted. 3-4 million cells/condition are harvested and the cells are lysed to prepare samples for NSPs activity detection. The remaining cells are collected by centrifugation at 600×g for 5 min. The left cells are washed once in 1×PBS. After the wash, the pelleted cells are resuspended in complete IMDM medium at 4-6×10^5 cells/mL supplemented with 50 ng/ml of G-CSF only. The DPP1 inhibitors in the medium are refreshed. Cells incubate for additional 2 days, for a total of 7 days from day of harvest. On day 7, cells are counted. 3-4 million cells/condition are harvested and the cell lysed to prepare samples for NSPs activity detection.
(§15) 3-4 million cells are collected into Eppendorf tubes. Samples are spun down at 600×g, 4° C. for 5 min. The supernatant is removed and resuspended in 1 mL PBS. […]

DPP1 in HL-60 cells = biological target: T1, DPP1 in HL-60 cells (Homo sapiens, UniProt P53634); assay: DPP1 Cell IC50 Assay; conditions: H-Gly-Phe-AFC substrate
T1 construct: HL-60 cells (ATCC; host or cells: HL-60
Method: HL-60 cells (ATCC; Manassas, VA) were maintained in RPMI-1640 supplemented with 20% heat-inactivated FBS and 1X Antibiotic Antimycotic (Cytiva; Marlborough, MA). Media was changed every three to four days and cells were not allowed to exceed 1×10^6 cells per mL. Prior to assay, cells were collected by centrifugation at 500 rcf for 3 minutes, resuspended in RPMI and counted. Cells were diluted in RPMI to a concentration of 5×10^5 live cells per mL and transferred to black 96-well plates for assay, 60 μL per well. Test articles were diluted in RPMI plus 0.5% DMSO, and 20 μL was added to each assay well. Compound was allowed to pre-incubate with cells with gentle shaking at 100 rpm for 60 minutes at 37° C. in a cell culture incubator maintained at 5% CO2, after which 20 μL of 500 μM H-Gly-Phe-AFC substrate (MP Biomedicals; Solon, OH) in RPMI was added to each well. Plates were returned to the incubator with shaking at 100 rpm for 30 minutes, after which fluorescence was measured at Excitation/Emission 400/505 nm. Percent (%) Inhibition was calculated from RFU values compared to control cell wells that received only RPMI plus 0.5% DMSO. IC50 values for each compound were calculated via the XLFit (IDBS Version 5.3.1.3) Add-On to Microsoft Excel using the four parameter fit equation y=(A+ ((B−A)/(1+ ((C/x)^D)))), which appears as equation number 205 (4 Parameter Logistic Model or Sigmoidal Dose-Response Model) in XLFit.

cathepsin G (CatG) = assay: CatG activity in lysates of mouse bone marrow progenitor cells differentiated into neutrophils under DPP1 inhibitor; conditions: for max inhibition of CatG activity observed: regardless of day
Method: as §1, §2, §3, §4, §5, §6, §7, §8, §9, §10, §11, §12, §13, §14, §15

proteinase 3 (PR3) = assay: PR3 activity in lysates of mouse bone marrow progenitor cells differentiated into neutrophils under DPP1 inhibitor
Method: as §1, §2, §3, §4, §5, §6, §7, §8, §9, §10, §11, §12, §13, §14, §15

T1 sequence (P53634 25-463): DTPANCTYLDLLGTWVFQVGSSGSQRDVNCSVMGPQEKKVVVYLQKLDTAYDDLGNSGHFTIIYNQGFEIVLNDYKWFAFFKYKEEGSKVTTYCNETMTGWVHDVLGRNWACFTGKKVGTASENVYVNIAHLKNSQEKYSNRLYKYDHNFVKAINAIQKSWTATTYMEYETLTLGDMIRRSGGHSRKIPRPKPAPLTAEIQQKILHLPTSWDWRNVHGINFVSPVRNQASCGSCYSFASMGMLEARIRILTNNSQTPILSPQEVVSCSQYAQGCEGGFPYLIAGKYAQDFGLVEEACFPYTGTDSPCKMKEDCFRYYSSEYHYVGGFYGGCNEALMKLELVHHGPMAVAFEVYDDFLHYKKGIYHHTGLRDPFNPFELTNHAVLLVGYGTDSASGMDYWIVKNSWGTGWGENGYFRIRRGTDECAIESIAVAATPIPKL

| IC50 (DPP1 in HL-60 cells) [nM] | Structure (SMILES) | Neutrophil Elastase Activity (% reduction from control) (Neutrophil elastase (NE); 0.02 μM, Day 3) [%] | Neutrophil Elastase Activity (% reduction from control) (Neutrophil elastase (NE); 0.02 μM, Day 5) [%] | Neutrophil Elastase Activity (% reduction from control) (Neutrophil elastase (NE); 0.02 μM, Day 7) [%] | Neutrophil Elastase Activity (% reduction from control) (Neutrophil elastase (NE); 0.1 μM, Day 3) [%] | Neutrophil Elastase Activity (% reduction from control) (Neutrophil elastase (NE); 0.1 μM, Day 5) [%] | Neutrophil Elastase Activity (% reduction from control) (Neutrophil elastase (NE); 0.1 μM, Day 7) [%] | maximum inhibition of NE activity observed (Neutrophil elastase (NE); regardless of day) | CatG Activity (% reduction from control) (cathepsin G (CatG); 0.02 μM, Day 3) [%] | CatG Activity (% reduction from control) (cathepsin G (CatG); 0.02 μM, Day 5) [%] | CatG Activity (% reduction from control) (cathepsin G (CatG); 0.02 μM, Day 7) [%] | CatG Activity (% reduction from control) (cathepsin G (CatG); 0.1 μM, Day 3) [%] | CatG Activity (% reduction from control) (cathepsin G (CatG); 0.1 μM, Day 5) [%] | CatG Activity (% reduction from control) (cathepsin G (CatG); 0.1 μM, Day 7) [%] | PR3 Activity (% reduction from control) (proteinase 3 (PR3); 0.02 μM, Day 3) [%] | PR3 Activity (% reduction from control) (proteinase 3 (PR3); 0.02 μM, Day 5) [%] | PR3 Activity (% reduction from control) (proteinase 3 (PR3); 0.02 μM, Day 7) [%] | PR3 Activity (% reduction from control) (proteinase 3 (PR3); 0.1 μM, Day 3) [%] | PR3 Activity (% reduction from control) (proteinase 3 (PR3); 0.1 μM, Day 5) [%] | PR3 Activity (% reduction from control) (proteinase 3 (PR3); 0.1 μM, Day 7) [%] | also measured |
| --- | --- | --- | --- | --- | --- | --- | --- | --- | --- | --- | --- | --- | --- | --- | --- | --- | --- | --- | --- | --- | --- |
| 1.1 ± 0.2 | COC1CNC[C@@H](C(=O)N[C@H](C#N)Cc2ccc(-c3ccc4oc(=O)n(C)c4c3)cc2)OC1 (mixture of isomers) [INSM-202, (6-rac)-(2S)—N-[(1S)-1-cyano-2-[4-(3-methyl-2-oxo-2,3-dihydro-1,3-benzoxazol-5-yl)phenyl]ethyl]-6-methoxy-1,4-oxazepane-2-carboxamide] | 86 | 80 | 89 | 78 | 90 | 88 | ~ 85% | 93 | 94 | 99 | 100 | 100 | 100 | 94 | 95 | 93 | 94 | 96 | 98 | max inhibition of CatG activity observed (cathepsin G (CatG)): ~ 95%; max inhibition of PR3 activity observed (proteinase 3 (PR3); regardless of day): ~ 95% |
| 13.4 ± 4.1 | Cn1c(=O)oc2ccc(-c3ccc(C[C@@H](C#N)NC(=O)[C@@H]4CNC[C@H](O)CO4)cc3)cc21 (single isomer, unassigned) [INSM-201, (2S,6S*)—N-[(1S)-1-cyano-2-[4-(3-methyl-2-oxo-2,3-dihydro-1,3-benzoxazol-5-yl)phenyl]ethyl]-6-hydroxy-1,4-oxazepane-2-carboxamide] | 67 | 42 | 78 | 83 | 83 | 84 | – | 46 | 27 | 78 | 90 | 94 | 98 | 45 | 36 | 72 | 79 | 96 | 96 | reduction in NE activity (Neutrophil elastase (NE)): concentration-dependent reduction in NE activity; maximum inhibition of NE activity observed (Neutrophil elastase (NE); at 0.1 μM regardless of day): ~ 85%; NE inhibition at low dose, fluctuations depending on the day (range) (Neutrophil elastase (NE); low dose, range over days): 42-78%; reduction in CatG activity (cathepsin G (CatG)): concentration-dependent reduction in CatG activity; max inhibition of CatG activity observed (cathepsin G (CatG); at 1 μM): ~ 95%; CatG inhibition at low dose, fluctuations depending on the day (range) (cathepsin G (CatG); low dose, range over days): 27-78%; reduction in PR3 activity (proteinase 3 (PR3)): concentration-dependent reduction in PR3 activity; max inhibition of PR3 activity observed (proteinase 3 (PR3); at 1 μM on D5 and D7): ~ 95%; PR3 inhibition at low dose, fluctuations depending on the day (range) (proteinase 3 (PR3); low dose, range over days): 36%-72% |
| 0.6 ± 0.01 | COC1CNC[C@@H](C(=O)N[C@H](C#N)Cc2ccc(-c3ccc4oc(=O)n(C)c4c3)cc2)OC1 (single isomer, unassigned) [INSM-203, (2S,6R*)—N-[(1S)-1-cyano-2-[4-(3-methyl-2-oxo-2,3-dihydro-1,3-benzoxazol-5-yl)phenyl]ethyl]-6-methoxy-1,4-oxazepane-2-carboxamide] | 89 | 82 | 84 | 91 | 84 | 86 | ~ 85% | 93 | 97 | 94 | 99 | 100 | 96 | 93 | 93 | 85 | 94 | 94 | 84 | max inhibition of CatG activity observed (cathepsin G (CatG)): ~ 95%; concentration by which PR3 inhibition plateau is reached (proteinase 3 (PR3)): ≤ 0.02 µM; max inhibition of PR3 activity observed (proteinase 3 (PR3); regardless of day): ~ 90% |
